Test results reported in ChEMBL document CHEMBL4680347, “Discovery of novel 1,3,5-triazine derivatives as potent inhibitor of cervical cancer via dual inhibition of PI3K/mTOR” (Bioorg Med Chem, 2021).

Experiments:
[1] = target: Serine/threonine-protein kinase mTOR (Homo sapiens, UniProt P42345); experiment: Inhibition of mTOR (unknown origin) measured after 45 mins by LANCE Ultra assay
[2] = target: Phosphatidylinositol 4,5-bisphosphate 3-kinase catalytic subunit alpha isoform (Homo sapiens, UniProt P42336); experiment: Inhibition of PI3Kalpha (unknown origin) measured after 1 hr by ADP-glo plus luminescence assay
Chain of Phosphatidylinositol 4,5-bisphosphate 3-kinase catalytic subunit alpha isoform (P42336 whole entry, canonical isoform): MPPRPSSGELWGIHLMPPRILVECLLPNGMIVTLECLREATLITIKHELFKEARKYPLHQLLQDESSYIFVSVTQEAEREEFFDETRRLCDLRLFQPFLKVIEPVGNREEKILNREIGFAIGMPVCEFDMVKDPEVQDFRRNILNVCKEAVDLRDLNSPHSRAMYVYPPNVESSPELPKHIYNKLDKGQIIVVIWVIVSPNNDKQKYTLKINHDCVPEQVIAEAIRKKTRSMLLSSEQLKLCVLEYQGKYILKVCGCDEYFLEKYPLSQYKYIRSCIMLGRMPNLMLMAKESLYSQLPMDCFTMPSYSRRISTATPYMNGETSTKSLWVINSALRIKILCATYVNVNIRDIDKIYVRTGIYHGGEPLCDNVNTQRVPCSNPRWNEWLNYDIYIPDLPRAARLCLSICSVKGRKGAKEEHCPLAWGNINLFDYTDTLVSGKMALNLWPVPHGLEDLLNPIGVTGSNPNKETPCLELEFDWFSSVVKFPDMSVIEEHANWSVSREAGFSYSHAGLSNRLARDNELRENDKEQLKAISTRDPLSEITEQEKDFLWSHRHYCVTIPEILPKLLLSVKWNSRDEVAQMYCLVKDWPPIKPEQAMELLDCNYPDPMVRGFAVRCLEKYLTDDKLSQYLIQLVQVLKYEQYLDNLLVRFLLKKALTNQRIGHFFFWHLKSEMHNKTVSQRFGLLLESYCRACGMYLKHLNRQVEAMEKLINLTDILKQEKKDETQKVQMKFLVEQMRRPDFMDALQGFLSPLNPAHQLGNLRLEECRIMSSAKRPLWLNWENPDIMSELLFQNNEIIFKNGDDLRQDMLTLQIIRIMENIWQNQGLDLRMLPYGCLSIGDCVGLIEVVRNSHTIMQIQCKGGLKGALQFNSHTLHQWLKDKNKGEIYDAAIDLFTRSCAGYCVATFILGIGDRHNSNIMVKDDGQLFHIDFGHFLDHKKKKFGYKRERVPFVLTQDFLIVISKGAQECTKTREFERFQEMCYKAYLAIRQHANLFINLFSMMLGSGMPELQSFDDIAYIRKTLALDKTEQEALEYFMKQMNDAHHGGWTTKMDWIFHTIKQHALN

SMILES	IC50 [1]	IC50 [2]
O=S(=O)(c1ccccc1F)N1CCN(c2nc(NCCN3CCOCC3)nc(N3CCOCC3)n2)CC1	98.3 nM	123 nM
O=S(=O)(c1cccc(Cl)c1)N1CCN(c2nc(NCCN3CCOCC3)nc(N3CCOCC3)n2)CC1		37.5 nM
Cc1ccc(S(=O)(=O)N2CCN(c3nc(NCCN4CCOCC4)nc(N4CCOCC4)n3)CC2)cc1	12.8 nM	6.03 nM
COc1cccc(S(=O)(=O)N2CCN(c3nc(NCCN4CCOCC4)nc(N4CCOCC4)n3)CC2)c1	22.2 nM	24.6 nM
O=[N+]([O-])c1ccccc1S(=O)(=O)N1CCN(c2nc(NCCN3CCOCC3)nc(N3CCOCC3)n2)CC1	66.3 nM	42.2 nM
O=S(=O)(c1cccc(O)c1)N1CCN(c2nc(NCCN3CCOCC3)nc(N3CCOCC3)n2)CC1	21.8 nM	15.6 nM
O=S(=O)(c1ccccc1)N1CCN(c2nc(NCCN3CCOCC3)nc(N3CCOCC3)n2)CC1	70.4 nM	40.6 nM
O=[N+]([O-])c1ccc(S(=O)(=O)N2CCN(c3nc(NCCN4CCOCC4)nc(N4CCOCC4)n3)CC2)cc1	41.8 nM	33.6 nM
Cc1cccc(S(=O)(=O)N2CCN(c3nc(NCCN4CCOCC4)nc(N4CCOCC4)n3)CC2)c1		18.7 nM
